For two molecules, Ki results are on record in article PMC10610038, “New Insights into the Enhancement of Adventitious Root Formation Using N,N′-Bis(2,3-methylenedioxyphenyl)urea” (Plants, 2023).

Molecules are shown by their SMILES.

Usually Ki stands for the equilibrium dissociation constant of an inhibitor or competing ligand from its target. Read a low Ki as tighter binding.

The target in assay [1] is T1, ZmCKX1 (cytokinin oxidase/dehydrogenase) (Zea mays, UniProt Q9T0N8).
T1 construct: gene CKX1
T1 sequence (Q9T0N8 19-534): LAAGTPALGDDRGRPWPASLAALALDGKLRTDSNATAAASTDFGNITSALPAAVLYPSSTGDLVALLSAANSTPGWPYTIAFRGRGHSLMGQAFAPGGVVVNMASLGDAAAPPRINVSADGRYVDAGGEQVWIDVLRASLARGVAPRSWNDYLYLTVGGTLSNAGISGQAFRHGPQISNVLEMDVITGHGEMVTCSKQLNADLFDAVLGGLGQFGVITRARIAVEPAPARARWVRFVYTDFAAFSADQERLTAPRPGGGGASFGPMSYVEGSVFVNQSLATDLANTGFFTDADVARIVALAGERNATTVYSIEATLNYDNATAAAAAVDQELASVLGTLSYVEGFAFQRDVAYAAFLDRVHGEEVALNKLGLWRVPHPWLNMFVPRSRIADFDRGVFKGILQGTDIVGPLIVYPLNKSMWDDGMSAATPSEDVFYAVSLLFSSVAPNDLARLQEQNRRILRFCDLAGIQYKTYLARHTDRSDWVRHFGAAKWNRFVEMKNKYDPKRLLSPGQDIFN
The experiment in a line: DCPIP reduction assay with purified ZmCKX1, trans-zeatin substrate; Lineweaver-Burk; Ki from IC50 ([…]) by Cheng-Prusoff. It counts as biochemical.

Assay [2] deals with T1, ZmCKX1 (cytokinin oxidase/dehydrogenase). Nature of the assay: DCPIP reduction assay with purified ZmCKX1, trans-zeatin substrate; Ki from IC50 ([…]) by Cheng-Prusoff. It counts as biochemical.

In the case of `O=C(Nc1cccc2c1OCO2)Nc1cccc2c1OCO2` [2,3-MDPU, N,N′-bis-(2,3-methylenedioxyphenyl)urea], affinity in assay [1] was put at a Ki of 1600 nM.
Turning to `O=C(Nc1ccccc1)Nc1cnns1` [TDZ, N-phenyl-N′-(1,2,3-thiadiazol-5-yl)urea], in assay [2], the Ki stood at 1400 nM.
